Results as given in patent US20210355104A1, “ADENOSINE RECEPTOR BINDING COMPOUNDS” (Nikang Therapeuticsm Inc., priority 2018, published 2021).
Several values for one entry are separate records, joined by “and”; a condition that tells them apart may be missing. Equal entries are not always repeated.

Assays:
Adenosine A2A receptor [1] = molecular target: T1, Adenosine A2A receptor (Homo sapiens, UniProt P29274); assay: cAMP assay in 293A cells stably expressing the adenosine A2A receptor (CGS21680 stimulation, HTRF); format: cell-based; design: expressed in transfected cells; host or cells: 293A cells (Invitrogen, Cat# R705-07) infected with A2A-expressing lentivirus (custom packaged by Biosettia), puromycin selected; conditions: 293A-A2AR cells, 0.1% BSA
T1 sequence (P29274 whole entry): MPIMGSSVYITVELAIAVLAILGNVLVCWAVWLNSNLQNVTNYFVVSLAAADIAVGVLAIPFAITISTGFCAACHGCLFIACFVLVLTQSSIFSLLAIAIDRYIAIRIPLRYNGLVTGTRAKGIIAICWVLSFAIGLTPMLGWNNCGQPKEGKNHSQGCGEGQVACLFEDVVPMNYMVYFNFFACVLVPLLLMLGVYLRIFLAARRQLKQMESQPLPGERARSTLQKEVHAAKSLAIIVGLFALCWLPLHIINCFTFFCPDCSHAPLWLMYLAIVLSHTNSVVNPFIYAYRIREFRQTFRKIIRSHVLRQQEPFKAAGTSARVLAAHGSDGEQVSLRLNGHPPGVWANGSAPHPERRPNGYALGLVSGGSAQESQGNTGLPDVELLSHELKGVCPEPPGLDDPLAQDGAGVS

Adenosine A2A receptor [2] = molecular target: T1, Adenosine A2A receptor; assay: Adenosine A2A receptor competitive binding assay (Tag-lite HTRF); conditions: Tag-lite adenosine A2A receptor ligand binding
Summary of the method: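 Compound displacement of a red fluorescent antagonist tracer (added at 60 nM stock) from donor-labelled, pre-transfected human A2A cells was read by HTRF after 2 h at room temperature; compound dilutions contained 0.6% DMSO.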

[3] = 8 nM CGS, values separated by / are repeat determinations, read-out: cAMP (nM) 0.1% BSA, 8 nM CGS
[4] = 2 h room temperature, values separated by / are repeat determinations
[5] = 8 nM CGS, read-out: cAMP (nM) 0.1% BSA, 8 nM CGS
[6] = 1 uM CGS, values separated by / are repeat determinations, read-out: cAMP (nM) 0.1% BSA, 1 uM CGS

Row | SMILES | IC50 (Adenosine A2A receptor [1]; [3]) | IC50 (Adenosine A2A receptor [2]; [4]) | IC50 (Adenosine A2A receptor [1]; [5]) [nM] | IC50 (Adenosine A2A receptor [2]; HTRF) [nM] | IC50 (Adenosine A2A receptor [1]; 1 uM CGS, read-out: cAMP (nM) 0.1% BSA, 1 uM CGS) [nM] | IC50 (Adenosine A2A receptor [1]; [6]) [nM]
1 | Cc1cc(-c2c(OCc3cccc(CO[C@H]4CCOC4)n3)nc(N)nc2-c2ccc(C)o2)cc(C(F)(F)F)n1 [Example 7, (S)-5-(2-methyl-6-(trifluoromethyl)pyridin-4-yl)-4-(5-methylfuran-2-yl)-6-((6-(((tetrahydrofuran-3-yl)oxy)methyl)pyridin-2-yl)methoxy)pyrimidin-2-amine] | 380 nM | 58 nM | – | – | – | –
2 | Cc1cc(-c2c(OCC3CCC(C)(O)CC3)nc(N)nc2-c2ccc(F)cc2)cc(C(F)F)n1 (stereo not drawn) [Example 197, 4-(((2-amino-5-(2-(difluoromethyl)-6-methylpyridin-4-yl)-6-(4-fluorophenyl)pyrimidin-4-yl)oxy)methyl)-1-methylcyclohexan-1-ol] | – | – | 6.3 | 19.1 | – | –
3 | Cc1cc(-c2c(OCc3nccn3C3COC3)nc(N)nc2-c2ccc(F)cc2)cc(C(F)F)n1 [Example 171, 5-(2-(difluoromethyl)-6-methylpyridin-4-yl)-4-(4-fluorophenyl)-6-((1-(oxetan-3-yl)-1H-imidazol-2-yl)methoxy)pyrimidin-2-amine] | 4.1 nM | 3.6 nM | – | – | – | –
4 | Cc1cc(-c2c(OCc3ccn(CC4CC4)n3)nc(N)nc2-c2ccc(F)cc2)cc(C(F)F)n1 [Example 214] | – | – | – | 4.5 | 327 | –
5 | Cc1cc(-c2c(OCC(O)CCO)nc(N)nc2-c2ccc(F)cc2)cc(C(F)F)n1 (stereo not drawn) [Example 81, 4-((2-amino-5-(2-(difluoromethyl)-6-methylpyridin-4-yl)-6-(4-fluorophenyl)pyrimidin-4-yl)oxy)butane-1,3-diol] | 21 nM and 5.9 nM and 8.4 nM | 5.6 nM | – | – | – | –
6 | Cc1cc(-c2c(OCCN(C)c3cc(OCCO)ccn3)nc(N)nc2-c2ccc(F)cc2)cc(C(F)F)n1 [Example 155, 2-((2-((2-((2-amino-5-(2-(difluoromethyl)-6-methylpyridin-4-yl)-6-(4-fluorophenyl)pyrimidin-4-yl)oxy)ethyl)(methyl)amino)pyridin-4-yl)oxy)ethan-1-ol] | 5.4 nM | 24 nM | – | – | – | –
7 | CCN(CC)C(=O)[C@H](C)Oc1nc(N)nc(-c2ccccc2)c1-c1cc(C)nc(C(F)(F)F)c1 [Example 14, (S)-2-((2-amino-5-(2-methyl-6-(trifluoromethyl)pyridin-4-yl)-6-phenylpyrimidin-4-yl)oxy)-N,N-diethylpropanamide] | 10000 nM | 900 nM | – | – | – | –
8 | Cc1cc(-c2c(OCCNS(N)(=O)=O)nc(N)nc2-c2ccccc2)cc(C(F)(F)F)n1 [Example 112] | 3.1 nM | 6.7 nM | – | – | – | –
9 | Cc1cc(-c2c(OCCN3CCN(c4ccc(S(C)(=O)=O)cc4)CC3)nc(N)nc2-c2ccc(F)cc2)cc(C(F)F)n1 [Example 56, 5-(2-(difluoromethyl)-6-methylpyridin-4-yl)-4-(4-fluorophenyl)-6-(2-(4-(4-(methylsulfonyl)phenyl)piperazin-1-yl)ethoxy)pyrimidin-2-amine] | 3.6 nM | 8.9 nM | – | – | – | –
10 | Cc1cc(-c2c(OCC(=O)NCC3CCOCC3)nc(N)nc2-c2ccc(F)cc2)cc(C(F)F)n1 [Example 160, 2-((2-amino-5-(2-(difluoromethyl)-6-methylpyridin-4-yl)-6-(4-fluorophenyl)pyrimidin-4-yl)oxy)-N-((tetrahydro-2H-pyran-4-yl)methyl)acetamide] | 184 nM | 336 nM | – | – | – | –
11 | Cc1cc(-c2c(OCCc3ccc(N4CCN(C)CC4)cc3)nc(N)nc2-c2ccc(F)cc2)cc(C(F)F)n1 [Example 57, 5-(2-(difluoromethyl)-6-methylpyridin-4-yl)-4-(4-fluorophenyl)-6-(4-(4-methylpiperazin-1-yl)phenethoxy)pyrimidin-2-amine] | 1.7 nM | 2 nM and 14 nM | – | – | – | –
12 | CCN(CCO)C(=O)COc1nc(N)nc(-c2ccc(F)cc2)c1-c1cc(C)nc(C(F)F)c1 [Example 89, 2-((2-amino-5-(2-(difluoromethyl)-6-methylpyridin-4-yl)-6-(4-fluorophenyl)pyrimidin-4-yl)oxy)-N-ethyl-N-(2-hydroxyethyl)acetamide] | 2.2 nM | 6.1 nM | – | – | – | –
13 | CCN(CC)C(=O)COc1nc(N)nc(-c2ccccc2)c1-c1cc(C)nc(C(F)(F)CC)c1 [Example 17, 2-((2-amino-5-(2-(1,1-difluoropropyl)-6-methylpyridin-4-yl)-6-phenylpyrimidin-4-yl)oxy)-N,N-diethylacetamide] | 7.5 nM | 9.01 nM | – | – | – | –
14 | Cc1cc(-c2c(OCc3n[nH]cc3C(C)C)nc(N)nc2-c2ccc(F)cc2)cc(C(F)F)n1 [Example 183, 5-(2-(difluoromethyl)-6-methylpyridin-4-yl)-4-(4-fluorophenyl)-6-((4-isopropyl-1H-pyrazol-3-yl)methoxy)pyrimidin-2-amine] | 12 nM | 46 nM | – | – | – | –
15 | Cc1cc(-c2c(OCc3cccc(=O)n3C(C)C)nc(N)nc2-c2ccc(F)cc2)cc(C(F)F)n1 [Example 186, 6-(((2-amino-5-(2-(difluoromethyl)-6-methylpyridin-4-yl)-6-(4-fluorophenyl)pyrimidin-4-yl)oxy)methyl)-1-isopropylpyridin-2(1H)-one] | 4.1 nM | 2.6 nM | – | – | – | 10500
16 | Cc1cc(-c2c(OCCN(C)c3ccc(C#N)cn3)nc(N)nc2-c2ccc(F)cc2)cc(C(F)F)n1 [Example 156, 6-((2-((2-amino-5-(2-(difluoromethyl)-6-methylpyridin-4-yl)-6-(4-fluorophenyl)pyrimidin-4-yl)oxy)ethyl)(methyl)amino)nicotinonitrile] | 57 nM | 84 nM | – | – | – | –
17 | CCc1nnn(CC)c1COc1nc(N)nc(-c2ccc(F)cc2)c1-c1cc(C)nc(C(F)F)c1 [Example 202, 4-((1,4-diethyl-1H-1,2,3-triazol-5-yl)methoxy)-5-(2-(difluoromethyl)-6-methylpyridin-4-yl)-6-(4-fluorophenyl)pyrimidin-2-amine] | – | – | 16 | 3.5 | – | –
18 | Cc1cc(-c2c(OCc3nccn3C3CCC3)nc(N)nc2-c2ccc(F)cc2)cc(C(F)F)n1 [Example 194, 4-((1-cyclobutyl-1H-imidazol-2-yl)methoxy)-5-(2-(difluoromethyl)-6-methylpyridin-4-yl)-6-(4-fluorophenyl)pyrimidin-2-amine] | 1.5 nM | 0.6 nM and 1.7 nM | – | – | – | 151
19 | Cc1cc(-c2c(OCCCS(C)(=N)=O)nc(N)nc2-c2ccc(F)cc2)cc(C(F)F)n1 (stereo not drawn) [Example 169, (3-((2-amino-5-(2-(difluoromethyl)-6-methylpyridin-4-yl)-6-(4-fluorophenyl)pyrimidin-4-yl)oxy)propyl)(imino)(methyl)-λ^6-sulfanone] | 7.1 nM | 9.7 nM | – | – | – | –
20 | Cc1cc(-c2c(OCc3nccn3CC(C)C)nc(N)nc2-c2ccc(F)cc2)cc(C(F)F)n1 [Example 176, 5-(2-(difluoromethyl)-6-methylpyridin-4-yl)-4-(4-fluorophenyl)-6-((1-isobutyl-1H-imidazol-2-yl)methoxy)pyrimidin-2-amine] | 7.9 nM | 3.6 nM | – | – | – | –
21 | Cc1cc(-c2c(OC[C@@H](O)CO)nc(N)nc2-c2ccc(F)cc2)cc(C(F)F)n1 [Example 83, (S)-3-((2-amino-5-(2-(difluoromethyl)-6-methylpyridin-4-yl)-6-(4-fluorophenyl)pyrimidin-4-yl)oxy)propane-1,2-diol] | 2.9 nM and 7.3 nM and 22 nM | 13 nM | – | – | – | 1610
